# Laboratory results from PubChem BioAssay (NCI).
#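 Tested at 5 concentrations; 48 h exposure; 96-well plates; endpoints linearly interpolated, else capped at highest concentration. TGI is the concentration that stops growth completely.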
# How the values were obtained:
# Test in all cases: NCI-60 cell line screen, 48 h
# OVCAR-3 ovarian = tested on: OVCAR-3 ovarian
# EKVX NSCLC = tested on: EKVX NSCLC
# BT-549 breast = tested on: BT-549 breast
# SR leukemia = tested on: SR leukemia
# MALME-3M melanoma = tested on: MALME-3M melanoma
# IGROV1 ovarian = tested on: IGROV1 ovarian
# TK-10 renal = tested on: TK-10 renal
# OVCAR-5 ovarian = tested on: OVCAR-5 ovarian
# MCF7 breast = tested on: MCF7 breast
# DU-145 prostate = tested on: DU-145 prostate
# HOP-62 NSCLC = tested on: HOP-62 NSCLC
# T-47D breast = tested on: T-47D breast
# SW-620 colon = tested on: SW-620 colon
# U251 CNS = tested on: U251 CNS
# OVCAR-8 ovarian = tested on: OVCAR-8 ovarian
# RXF 393 renal = tested on: RXF 393 renal
# A549 NSCLC = tested on: A549 NSCLC
# NCI-H226 lung = tested on: NCI-H226 lung
# NCI-H522 lung = tested on: NCI-H522 lung
# 786-0 renal = tested on: 786-0 renal
# MDA-MB-435 = tested on: MDA-MB-435
# UACC-257 melanoma = tested on: UACC-257 melanoma
# COLO 205 colon = tested on: COLO 205 colon
# K-562 leukemia = tested on: K-562 leukemia
# SNB-75 CNS = tested on: SNB-75 CNS
# NCI-H460 lung = tested on: NCI-H460 lung
# NCI-H23 lung = tested on: NCI-H23 lung
# UACC-62 melanoma = tested on: UACC-62 melanoma
# HS 578T breast = tested on: HS 578T breast
# UO-31 renal = tested on: UO-31 renal
# NCI/ADR-RES ovarian = tested on: NCI/ADR-RES ovarian
# LOX IMVI melanoma = tested on: LOX IMVI melanoma
# KM12 colon = tested on: KM12 colon
# SNB-19 CNS = tested on: SNB-19 CNS
# RPMI-8226 leukemia = tested on: RPMI-8226 leukemia
# SK-MEL-2 melanoma = tested on: SK-MEL-2 melanoma
# HCT-116 colon = tested on: HCT-116 colon
# MDA-N = tested on: MDA-N
# A498 renal = tested on: A498 renal
# SF-268 CNS = tested on: SF-268 CNS
# HCC-2998 colon = tested on: HCC-2998 colon
# HCT-15 colon = tested on: HCT-15 colon
# HT29 colon = tested on: HT29 colon
# PC-3 prostate = tested on: PC-3 prostate
# SK-OV-3 ovarian = tested on: SK-OV-3 ovarian
# OVCAR-4 ovarian = tested on: OVCAR-4 ovarian
# CCRF-CEM leukemia = tested on: CCRF-CEM leukemia
# SN12C renal = tested on: SN12C renal
# SF-295 CNS = tested on: SF-295 CNS
# M14 melanoma = tested on: M14 melanoma
# SF-539 CNS = tested on: SF-539 CNS
# SK-MEL-5 melanoma = tested on: SK-MEL-5 melanoma
# MOLT-4 leukemia = tested on: MOLT-4 leukemia
# ACHN renal = tested on: ACHN renal
# SK-MEL-28 melanoma = tested on: SK-MEL-28 melanoma
# HL-60(TB) leukemia = tested on: HL-60(TB) leukemia
# CAKI-1 renal = tested on: CAKI-1 renal
# HOP-92 NSCLC = tested on: HOP-92 NSCLC
# MDA-MB-231 breast = tested on: MDA-MB-231 breast
structure (smiles),measurement,setting,value
CS(=O)(=O)CC(=O)c1ccccc1,TGI,OVCAR-3 ovarian,> 100 µM
same,TGI,EKVX NSCLC,> 100 µM
same,TGI,BT-549 breast,> 100 µM
same,TGI,SR leukemia,> 100 µM
same,TGI,MALME-3M melanoma,> 100 µM
same,TGI,IGROV1 ovarian,> 100 µM
same,TGI,TK-10 renal,> 100 µM
same,TGI,OVCAR-5 ovarian,> 100 µM
same,TGI,MCF7 breast,> 100 µM
same,TGI,DU-145 prostate,> 100 µM
same,TGI,HOP-62 NSCLC,> 100 µM
same,TGI,T-47D breast,> 100 µM
same,TGI,SW-620 colon,> 100 µM
same,TGI,U251 CNS,> 100 µM
same,TGI,OVCAR-8 ovarian,> 100 µM
same,TGI,RXF 393 renal,> 100 µM
same,TGI,A549 NSCLC,> 100 µM
same,TGI,NCI-H226 lung,> 100 µM
same,TGI,NCI-H522 lung,> 100 µM
same,TGI,786-0 renal,> 100 µM
same,TGI,MDA-MB-435,> 100 µM
same,TGI,UACC-257 melanoma,> 100 µM
same,TGI,COLO 205 colon,> 100 µM
same,TGI,K-562 leukemia,> 100 µM
same,TGI,SNB-75 CNS,> 100 µM
same,TGI,NCI-H460 lung,> 100 µM
same,TGI,NCI-H23 lung,> 100 µM
same,TGI,UACC-62 melanoma,> 100 µM
same,TGI,HS 578T breast,> 100 µM
same,TGI,UO-31 renal,> 100 µM
same,TGI,NCI/ADR-RES ovarian,> 100 µM
same,TGI,LOX IMVI melanoma,> 100 µM
same,TGI,KM12 colon,> 100 µM
same,TGI,SNB-19 CNS,> 100 µM
same,TGI,RPMI-8226 leukemia,> 100 µM
same,TGI,SK-MEL-2 melanoma,> 100 µM
same,TGI,HCT-116 colon,> 100 µM
same,TGI,MDA-N,> 100 µM
same,TGI,A498 renal,> 100 µM
same,TGI,SF-268 CNS,> 100 µM
same,TGI,HCC-2998 colon,> 100 µM
same,TGI,HCT-15 colon,> 100 µM
same,TGI,HT29 colon,> 100 µM
same,TGI,PC-3 prostate,> 100 µM
same,TGI,SK-OV-3 ovarian,> 100 µM
same,TGI,OVCAR-4 ovarian,> 100 µM
same,TGI,CCRF-CEM leukemia,> 100 µM
same,TGI,SN12C renal,> 100 µM
same,TGI,SF-295 CNS,> 100 µM
same,TGI,M14 melanoma,> 100 µM
same,TGI,SF-539 CNS,> 100 µM
same,TGI,SK-MEL-5 melanoma,> 100 µM
same,TGI,MOLT-4 leukemia,> 100 µM
same,TGI,ACHN renal,> 100 µM
same,TGI,SK-MEL-28 melanoma,> 100 µM
same,TGI,HL-60(TB) leukemia,> 100 µM
COC(=O)C1=C(C(=O)OC)SC2(S1)C(C(=O)OC)=C(C(=O)OC)Sc1c2ssc1=Nc1ccc(Cl)cc1,TGI,OVCAR-3 ovarian,2.71 µM
same,TGI,EKVX NSCLC,2.8 µM
same,TGI,BT-549 breast,5.11 µM
same,TGI,SR leukemia,1.73 µM
same,TGI,IGROV1 ovarian,2.48 µM
same,TGI,TK-10 renal,2.69 µM
same,TGI,CAKI-1 renal,2.21 µM
same,TGI,OVCAR-5 ovarian,2.81 µM
same,TGI,MCF7 breast,2.42 µM
same,TGI,DU-145 prostate,1.65 µM
same,TGI,HOP-62 NSCLC,3.36 µM
same,TGI,T-47D breast,3.45 µM
same,TGI,U251 CNS,2.64 µM
same,TGI,OVCAR-8 ovarian,3.25 µM
same,TGI,RXF 393 renal,0.894 µM
same,TGI,A549 NSCLC,3.13 µM
same,TGI,NCI-H226 lung,3.38 µM
same,TGI,786-0 renal,1.69 µM
same,TGI,MDA-MB-435,2.14 µM
same,TGI,UACC-257 melanoma,2.3 µM
same,TGI,COLO 205 colon,2.04 µM
same,TGI,K-562 leukemia,5.78 µM
same,TGI,SNB-75 CNS,2.3 µM
same,TGI,NCI-H460 lung,1.37 µM
same,TGI,HOP-92 NSCLC,1.93 µM
same,TGI,NCI-H23 lung,4.13 µM
same,TGI,UACC-62 melanoma,2.42 µM
same,TGI,HS 578T breast,> 100 µM
same,TGI,UO-31 renal,2.01 µM
same,TGI,LOX IMVI melanoma,1.16 µM
same,TGI,KM12 colon,2.11 µM
same,TGI,SNB-19 CNS,2.95 µM
same,TGI,SK-MEL-2 melanoma,1.36 µM
same,TGI,HCT-116 colon,1.15 µM
same,TGI,MDA-N,1.69 µM
same,TGI,A498 renal,3.15 µM
same,TGI,MDA-MB-231 breast,2.17 µM
same,TGI,HCC-2998 colon,1.02 µM
same,TGI,HT29 colon,1.78 µM
same,TGI,PC-3 prostate,1.71 µM
same,TGI,SK-OV-3 ovarian,4.29 µM
same,TGI,OVCAR-4 ovarian,2.43 µM
same,TGI,SN12C renal,1.8 µM
same,TGI,SF-295 CNS,5.34 µM
same,TGI,M14 melanoma,2.79 µM
same,TGI,SF-539 CNS,1.68 µM
same,TGI,SK-MEL-5 melanoma,2.96 µM
same,TGI,MOLT-4 leukemia,5.04 µM
same,TGI,ACHN renal,2.7 µM
same,TGI,SK-MEL-28 melanoma,3.66 µM
same,TGI,HL-60(TB) leukemia,6.74 µM
